Some test systems named below: ACHN renal; OVCAR-3 ovarian; OVCAR-5 ovarian; HCT-15 colon; UACC-257 melanoma; SK-MEL-2 melanoma; SF-539 CNS; CAKI-1 renal; MDA-MB-231 breast; SK-MEL-5 melanoma; LOX IMVI melanoma.
Test in all cases: NCI tumour cell line growth inhibition, 48 h

“And” between values parts separate entries of the source, which are not always exact repeats. Equal values may be shown once.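 Briefly, cells in 96-well plates were exposed to five compound concentrations for 48 h, and endpoints were estimated by linear interpolation. Here, GI50 denotes the concentration required for 50% inhibition of growth. TGI: concentration producing complete growth inhibition.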 Where a SMILES comes first, the peptide text is derived from it. The star is where a group is joined. Cbz = O=C(OCc1ccccc1)*; Boc = CC(C)(C)OC(=O)*; OSu = O=C1CCC(=O)N1O*; Bn = c1ccc(C*)cc1

Consider `CC(C)(CN1CCCCC1)C(=O)CC(SCCS(=O)(=O)O)c1ccc(Cl)cc1` (stereo unspecified), for which the TGI in the assay with ACHN renal is 17.1 µM; with OVCAR-3 ovarian, 17.9 µM; in the assay with OVCAR-5 ovarian, 11.4 µM; in the assay with HCT-15 colon, 6.66 µM; with UACC-257 melanoma, 20.5 µM; with SK-MEL-2 melanoma, 18.8 µM. Besides, the TGI was determined as 4.66 µM in the assay on SF-539 CNS, 18.3 µM in the assay with CAKI-1 renal, 6.61 µM in the assay on MDA-MB-231 breast and 20.8 µM with SK-MEL-5 melanoma.

On to `COc1ccc2c(c1)CC[C@@H]1C2CC[C@]2(C)C(=C=CP(=O)(O)O)CCC12` (stereo partly specified), for which the TGI in the assay on ACHN renal, with OVCAR-3 ovarian, with LOX IMVI melanoma, with OVCAR-5 ovarian, with HCT-15 colon and in the assay on UACC-257 melanoma was more than 100 µM throughout. Also, the TGI in the assay with SK-MEL-2 melanoma, in the assay on SF-539 CNS, in the assay on CAKI-1 renal and in the assay on SK-MEL-5 melanoma was more than 100 µM each time.

In the case of `CC(CC=O)Nc1nn2c(=O)c3ccccc3nc2s1` (stereo unspecified), the TGI with ACHN renal, in the assay on OVCAR-3 ovarian, in the assay on LOX IMVI melanoma, in the assay on OVCAR-5 ovarian, in the assay on HCT-15 colon and with UACC-257 melanoma was more than 100 µM throughout. Moreover, the TGI with SK-MEL-2 melanoma, in the assay on SF-539 CNS, in the assay on CAKI-1 renal and in the assay with SK-MEL-5 melanoma was more than 100 µM each time.

With `O=c1[nH]c2ccc([N+](=O)[O-])cc2nc1/C(=N/Nc1ccccc1)C(O)c1ccco1` (stereo unspecified), the TGI was more than 100 µM with ACHN renal; more than 100 µM with OVCAR-3 ovarian; more than 100 µM with LOX IMVI melanoma; more than 100 µM in the assay on OVCAR-5 ovarian; 63.5 µM in the assay on HCT-15 colon; more than 100 µM in the assay on UACC-257 melanoma. The TGI was more than 100 µM in the assay on SK-MEL-2 melanoma, more than 100 µM with SF-539 CNS and 90.6 µM in the assay on SK-MEL-5 melanoma.

In the case of `CC(=O)N1c2cc(N=NN(C)C)ccc2NC(=O)CC1C` (stereo unspecified), the TGI in the assay on ACHN renal, with OVCAR-3 ovarian, in the assay on OVCAR-5 ovarian, in the assay on HCT-15 colon, in the assay on UACC-257 melanoma and in the assay on SK-MEL-2 melanoma was more than 100 µM each time. The TGI with CAKI-1 renal, in the assay on MDA-MB-231 breast and in the assay with SK-MEL-5 melanoma was more than 100 µM each time.

`CN(C)C(=O)Oc1ccc(C(=S)Nc2ccccc2)cc1`: the TGI in the assay with ACHN renal, in the assay with OVCAR-3 ovarian, in the assay with LOX IMVI melanoma, with OVCAR-5 ovarian, in the assay on HCT-15 colon and in the assay with UACC-257 melanoma was more than 100 µM in each case. Further, the TGI was more than 100 µM in the assay with SK-MEL-2 melanoma, more than 100 µM in the assay on SF-539 CNS, more than 100 µM in the assay with CAKI-1 renal and 55.6 µM in the assay with SK-MEL-5 melanoma.

As to `CC(C)(C)OC(=O)NC(Cc1ccc(OCc2ccccc2)cc1)C(=O)NC(CCCCNC(=O)OCc1ccccc1)C(=O)NC(CCCCNC(=O)OCc1ccccc1)C(=O)ON1C(=O)CCC1=O` (stereo unspecified) (Boc-Tyr(Bn)-Lys(Cbz)-Lys(Cbz)-OSu; configuration not given here), the TGI in the assay with ACHN renal was more than 100 µM; in the assay on OVCAR-5 ovarian, more than 100 µM; in the assay with HCT-15 colon it was more than 100 µM; in the assay on UACC-257 melanoma it was more than 100 µM; with SK-MEL-2 melanoma, 99.4 µM; in the assay with CAKI-1 renal it was more than 100 µM. Further, in the assay on SK-MEL-5 melanoma, the TGI is more than 100 µM.

`O=C(O)/C=C/c1ccncc1`: the TGI in the assay on ACHN renal, with OVCAR-3 ovarian, in the assay on LOX IMVI melanoma, with OVCAR-5 ovarian, in the assay with HCT-15 colon and in the assay on UACC-257 melanoma was more than 100 µM each time. Also, the TGI in the assay on SK-MEL-2 melanoma, in the assay with SF-539 CNS, with CAKI-1 renal and with SK-MEL-5 melanoma was more than 100 µM each time.

Consider `O=C(c1ccccc1)c1cc(Cl)ccc1NCn1nnc2ccccc21`, for which the TGI in the assay with ACHN renal, in the assay with OVCAR-3 ovarian, in the assay on LOX IMVI melanoma, in the assay with HCT-15 colon, in the assay on UACC-257 melanoma and in the assay on SK-MEL-2 melanoma was more than 100 µM in each case. Also, the TGI in the assay with SF-539 CNS is more than 100 µM.

As for `O=S(=O)(O)c1cc(O)c(N=Nc2ccc3ccccc3c2O)c2ccccc12`, the TGI was more than 100 µM in the assay on ACHN renal; more than 100 µM with OVCAR-3 ovarian; more than 100 µM in the assay on OVCAR-5 ovarian; more than 100 µM in the assay on HCT-15 colon; 66.7 µM with UACC-257 melanoma; more than 100 µM with SK-MEL-2 melanoma. Moreover, the TGI with CAKI-1 renal amounted to 70.6 µM; with MDA-MB-231 breast, 94.7 µM; in the assay with SK-MEL-5 melanoma, 25.2 µM.

`CCOC(=O)c1c(-c2ccccc2)c(C)cn1C`: the TGI with ACHN renal, with OVCAR-3 ovarian, in the assay on OVCAR-5 ovarian, in the assay with HCT-15 colon, in the assay on UACC-257 melanoma and in the assay on SK-MEL-2 melanoma was more than 10 µM throughout. The results for the TGI with SF-539 CNS and in the assay with MDA-MB-231 breast were more than 10 µM and 0.772 µM, respectively.

Consider `C=CCOC(=O)N1c2ccc(O)cc2[C@@]23O[C@@]24[C@@H]1C#C/C=C\C#C[C@]3(O)C(=O)C[C@@H]4C`, for which the TGI in the assay on ACHN renal, in the assay with OVCAR-5 ovarian, in the assay on HCT-15 colon, in the assay with UACC-257 melanoma, with SK-MEL-2 melanoma and with SF-539 CNS was more than 100 µM in each case. The TGI with CAKI-1 renal, in the assay on MDA-MB-231 breast and in the assay with SK-MEL-5 melanoma was more than 100 µM in each case.

As to `CC[C@@]1(O)C(=O)OCc2c1cc1n(c2=O)Cc2c-1nc1ccccc1c2C=Nc1ccccc1N[C@@H]1c2cc3c(cc2[C@@H](c2cc(OC)c(O)c(OC)c2)[C@H]2C(=O)OC[C@@H]21)OCO3`, the TGI with ACHN renal was 0.961 µM and 0.171 µM; in the assay on OVCAR-3 ovarian, 10.9 µM and 1.81 µM; in the assay on UACC-257 melanoma it was 66.7 µM and 11.3 µM; with SK-MEL-2 melanoma, 36.3 µM and 3.86 µM; with SF-539 CNS, 0.239 µM; in the assay with CAKI-1 renal, 0.807 µM and 0.494 µM. The molecule further came in with a TGI in the assay with MDA-MB-231 breast of more than 49.8 µM. Further, the GI50 is 1.46 µM and 0.337 µM in the assay with OVCAR-3 ovarian; 0.847 µM and 0.281 µM with OVCAR-5 ovarian; 0.88 µM and 0.19 µM in the assay on HCT-15 colon; 7.14 µM and 1.62 µM in the assay with SK-MEL-2 melanoma; 0.0228 µM and < 0.005 µM in the assay with SF-539 CNS; 0.0138 µM in the assay with CAKI-1 renal. Also, the GI50 with MDA-MB-231 breast is 7.04 µM.

With `C(=C\c1c2oc(-c3ccccc3)cc(-c3ccccc3)c-2c2ccccc12)/C=C1\c2ccccc2-c2c(-c3ccccc3)cc(-c3ccccc3)[o+]c21`, the TGI in the assay with ACHN renal, in the assay with OVCAR-3 ovarian, in the assay with LOX IMVI melanoma, in the assay on OVCAR-5 ovarian, with HCT-15 colon and in the assay with UACC-257 melanoma was more than 100 µM throughout. The TGI in the assay on SK-MEL-2 melanoma, in the assay on SF-539 CNS and in the assay on SK-MEL-5 melanoma was more than 100 µM throughout.

The record behind these values is PubChem BioAssay (NCI).
